Here are results for 4 compounds from patent US20260364061A1, “COMPOUNDS, COMPOSITIONS, AND METHODS FOR THE TREATMENT OF CANCER” (Ohio State Innovation Foundation, priority 2023, published 2026).

One test relates to unresectable LPS. Particulars: patients with unresectable LPS; cited from earlier work.
For test [1], the system named is shIWS1 (IWS1 knockdown) dedifferentiated liposarcoma cells (cell lines Lipo863 and Lipo815). Briefly: Migration assay, IWS1 knockdown (shIWS1) cells. It counts as cell-based, human. Particulars: 24 hours of treatment, vs non-treatment control. As for the experimental part: (§1) FIG. 16A-16B. Evaluation of the effect of IWS1 inhibitors identified from in silico screening on the migration of cancer cells. […] The migration assay was performed using two cell groups: Empty Vector (EV, Negative control) and shIWS1 (IWS1 knockdown).
(§2) To evaluate these compounds, we used dedifferentiated cell lines Lipo863 and Lipo815 as an in-vitro model of dedifferentiated liposarcoma (DDLPS). […] FIG. 15A-15C. Using these candidates as potential pharmacological inhibitors of IWS1, we expected to reproduce/mimic phenotypical changes specific for lentiviral IWS1 knockdown. […] We performed a migration assay to assess the ability of cells to migrate after 24 hours of treatment compared to intact cells (EV) as well as IWS1 knockdown cells (shIWS1). Using drug concentrations that would not affect the viability of the cells, we sought to evaluate predominantly the migratory ability of cells. […] FIG. 17.

In test [2] the test system is Empty Vector (EV) dedifferentiated liposarcoma cells (cell lines Lipo863 and Lipo815). Briefly: Migration assay, Empty Vector (EV) control cells. The format is cell-based, human. Particulars: for reduction in cell migration, Empty Vector (EV): 24 hours of treatment, EV cells, non-cytotoxic concentration, vs control group, FIG. 16A-16B. On the procedure: as §1
FIG. 17. Evaluation of the dose-dependent effect of IWS1 inhibitors identified from in silico screening on the migration of cancer cells. Cell migration in vitro represents to some extent the ability of cells to metastasize in vivo.
as §2

A further test has as its system Lipo863 cells. Description: Spheroid formation in matrigel extracellular matrix scaffold. The format is cell-based, human. The conditions noted are these: 14-day treatment; FIG. 19. The text has this:
FIG. 19. To evaluate the impact of IWS1 inhibition on spheroid formation, a matrigel extracellular matrix scaffold was employed.
To evaluate the impact of IWS1 inhibition on spheroid formation, a matrigel extracellular matrix scaffold was employed.

The next test has as its system IWS1/Spt6 complex. Description: Co-immunoprecipitation of the IWS1/Spt6 complex from treated cells. The format is cell-based, human. The conditions noted are these: Co-IP after 48 hours of treatment; vs DMSO negative control. The text has this:
The Co-IP method allowed us to analyze IWS1/Spt6 protein complex directly and assess the efficiency of the drug candidates to disrupt the complex.

Test [3] deals with invasive DDLPS cell line Lipo246. Description: Invasion of DDLPS cells. It counts as cell-based. Particulars: 48 h, read-out: decrease in invasion ability. An excerpt: FIG. 18. Evaluation of the effect of IWS1 inhibitors identified from in silico screening on the […] of cancer cells. Invasiveness is important parameter used to characterize the aggressive behavior of cancer cells.
Invasiveness is important parameter used to characterize the aggressive behavior of cancer cells.

For test [4], the system named is dedifferentiated liposarcoma (DDLPS) cell line Lipo863. Description: Cell cytotoxicity (MTS) assay. The conditions noted are these: Homo sapiens.
The target of the next test is T1, IWS1 (Homo sapiens, UniProt Q96ST2).
T1 construct: document uses human liposarcoma lines; nuclear/cytosolic fractionation
Description: Nuclear/cytosolic fraction analysis of IWS1 distribution. It counts as cell-based. The conditions noted are these: 20 uM; 48-hour treatment; DMSO negative control ratio 0.75. An excerpt: The binding of the small molecule to IWS1 may cause the redistribution of the latter in the cell (cytoplasmic vs nuclear locations) due to conformational changes of the protein or disruption of its functions. To characterize the effect of a drug candidate on the distribution of IWS1 in the cell, we performed fraction analysis by separating cytoplasmic and nuclear proteins.

Like-named read-outs stand apart in the source and are kept apart here.

`COc1cccc2c1C(=O)c1c(O)c3c(c(O)c1C2=O)C[C@@](O)(C(=O)CO)C[C@@H]3O[C@H]1C[C@H](N)[C@H](O)[C@H](C)O1` [Doxorubicin]: in the test on unresectable LPS, the 5-year survival is recorded as 20-30% and the response rate is on record as 25%.

On to `CN1CCC(=C2c3ccccc3C=Cc3ccccc32)CC1` [Cyproheptadine], for which the “reduction in migration, shIWS1 cells” value in test [1] is “no significant reduction”. The compound also had a reduction in cell migration, Empty Vector (EV) in test [2] of 24%.

`Clc1ccc2c(c1)CCc1cccnc1C2=C1CCNCC1` [Desloratadine]: in the test on Lipo863 cells, the “spheroid formation: number of spheroids” value is given as “significantly reduced” and the “spheroid formation: size of spheroids” value is recorded as “significantly reduced”.

On to `CN1CCC(=C2c3ccccc3CC(=O)c3sccc32)CC1` [Ketotifen], for which the “reduction in migration, shIWS1 cells” value in test [1] is “no significant reduction”. Moreover, the “spheroid formation: number of spheroids” value with Lipo863 cells was “significantly reduced”. Besides, the “spheroid formation: size of spheroids” value with Lipo863 cells is “significantly reduced”. Moreover, in the test with IWS1/Spt6 complex, the “decrease in amount of IWS1/Spt6 complex pulled down” value is reported as “more than 50%”. For the same compound, the inhibition at 20 µM in test [3] was 30%. In addition, the IC50 in test [4] (read-out: IC50 (cell cytotoxicity assay)) and in test [4] (read-out: IC50 (the concentration at which the drug kills 50% of cancer cells)) was 63 µM throughout. Moreover, the “increase of ratio between nuclear and cytosolic fractions of IWS1” value on IWS1 amounted to 1.1. Moreover, in test [2] (1-10 uM solutions, FIG. 17), the “decrease in migration ability (dose-dependent)” value is given as 18-44%. Besides, in test [2], the reduction in cell migration, Empty Vector (EV) was 18%.
